Test results reported in patent US8829200B2, “Benzimidazole inhibitors of leukotriene production” (Boehringer Ingelheim International GmbH, priority 2010, dated 2014).
pIC50: −log10 of the molar value.

Experiments:
[1] = tested on: apoE/LDL-R double knockout mice; settings: oral dosing, high-fat diet from 2 months of age to 6 months; cited from earlier work
[2] = tested on: ApoE−/−xCD4dnTβRII mice; settings: administration via infusion, treated for four weeks; cited from earlier work
[3] = tested on: human glomerulonephritis; settings: clinical trial; cited from earlier work
[4] = tested on: synthesis of LTB4 in human whole blood; test: human whole blood LTB4 production inhibition assay; assay type: cell-based; settings: heparinized human whole blood, calcimycin-stimulated, plasma LTB4; read-out: hWB IC50
Method: Compounds are additionally tested in a human whole blood assay to determine their ability to inhibit the synthesis of LTB4 in a cellular system. Compounds are combined with heparinized human whole blood and incubated for 15 minutes at 37° C. Calcimycin ([…], prepared in phosphate-buffered saline, pH 7.4) is then added and the mixture is incubated for another 30 minutes at 37° C. The samples are centrifuged for 5 min at low speed (1500×g) and the plasma layer is removed. Plasma LTB4 concentrations are then measured using an antibody-based homogenous time-resolved fluorescence method (CisBio, Bedford, Mass.).

[5] = molecular target: recombinant human FLAP protein (Homo sapiens (Human), UniProt P20292); test: FLAP binding assay (Scintillation Proximity Assay); settings: displacement of [125I]L-691,831, membranes of sf9 cells expressing human FLAP; read-out: SPA IC50
recombinant human FLAP protein, sequence (P20292 whole entry): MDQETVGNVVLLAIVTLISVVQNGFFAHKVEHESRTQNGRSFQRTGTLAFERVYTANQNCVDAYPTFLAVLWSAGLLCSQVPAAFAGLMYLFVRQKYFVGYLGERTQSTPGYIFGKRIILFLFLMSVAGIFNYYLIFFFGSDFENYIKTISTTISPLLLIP
Method: Compounds are assessed for the ability to bind to FLAP in a binding assay that measures compound-specific displacement of an iodinated (^125I) FLAP inhibitor via a Scintillation Proximity Assay format (adapted from S. Charleson et al., Mol. Pharmacol., 1992, 41, 873-879).
Cell pellets produced from sf9 insect cells expressing recombinant human FLAP protein are resuspended in buffer A [15 mM Tris-HCl (pH 7.5), 2 mM MgCl2, 0.3 mM EDTA, 1 mM PMSF]. The cells are lysed with a Dounce homogenizer and the material is centrifuged at 10,000×g for 10 minutes. The supernatant is then collected and centrifuged at 100,000×g for 60 minutes. To prepare membrane protein for an assay, an aliquot of the 100,000×g pellet is resuspended in 1 ml of buffer A, Dounce homogenized, and finally subjected to polytron mixing (30 seconds). Membrane protein (25 μl, 5 μg) is mixed with WGA SPA beads (Amersham) and stirred for 1 h. To an assay plate (Perkin Elmer FlexiPlate) is added 25 μl of test compound prepared in Binding buffer [100 mM Tris (pH 7.5), 140 mM NaCl, 5% glycerol, 2 mM EDTA, 0.5 mM TCEP, 0.05% Tween 20], 25 μl of [^125I]L-691,831 (an iodinated analog of MK-591, Charleson et al. Mol. Pharmacol., 41, 873-879, 1992) and finally 50 μl of the bead/protein mixture. (final concentrations: beads, 200 μg/well; protein, 5 μg/well; [^125I] probe, 0.08 nM/well (17 nCi/well). The plates are shaken for 2 h before reading on a Microbeta plate reader. Non-specific binding is determined by the addition of 10 μM cold L-691,831 compound.

[6] = tested on: biomarkers for myocardial infarction risk; settings: clinical trial; cited from earlier work

Compound	pIC50 [4]	pIC50 [5]	also measured
CC(C)c1ccc2c(c1)c(SC(C)(C)C)c(CC(C)(C)C(=O)O)n2Cc1ccc(Cl)cc1 [MK-886]			decrease in plaque coverage in the aorta [1]: 56%; decrease in plaque coverage in the aortic root [1]: 43%; decrease in plaque area in the aortic root [2]: ~40%
CC(C)(C)Sc1c(CC(C)(C)C(=O)O)n(Cc2ccc(Cl)cc2)c2ccc(OCc3ccc4ccccc4n3)cc12 [MK-591]			effect on proteinuria [3]: reduce proteinuria
CNC(=O)c1ccc(F)cc1-c1nc2cc(-c3cnc(N)nc3)ccc2n1C(C)(C)C [Example 6, 2-[5-(2-Amino-pyrimidin-5-yl)-1-tert-butyl-1H-benzoimidazol-2-yl]-4-fluoro-N-methyl-benzamide]	6.89	8.29	
CNC(=O)c1ccc(-c2nn[nH]n2)cc1-c1nc2cc(-c3cnc(N)nc3)ccc2n1C(C)(C)C [Example 9, 2-[5-(2-Amino-pyrimidin-5-yl)-1-tert-butyl-1H-benzoimidazol-2-yl]-N-methyl-4-(2H-tetrazol-5-yl)-benzamide]	< 5.30	6.96	
O=C(O)[C@@H](c1ccc(OCc2ccc3ccccc3n2)cc1)C1CCCC1 [DG-031]			effect on biomarkers for myocardial infarction risk [6]: dose-dependent suppression of several biomarkers
CC(C)(C)n1c(-c2ccccc2C(=O)NC2CCNCC2)nc2cc(-c3cnc(N)nc3)ccc21 [Example 25, 2-[5-(2-Amino-pyrimidin-5-yl)-1-tert-butyl-1H-benzoimidazol-2-yl]-N-piperidin-4-yl-benzamide]	< 5.30	6.34	
COCCNC(=O)c1ccccc1-c1nc2cc(-c3cnc(N)nc3)ccc2n1C(C)(C)C [Example 19, 2-[5-(2-Amino-pyrimidin-5-yl)-1-tert-butyl-1H-benzoimidazol-2-yl]-N-(2-methoxy-ethyl)-benzamide]	5.54	7.36	
CC(C)(C)n1c(-c2ccccc2C(=O)Nc2ccccn2)nc2cc(-c3cnc(N)nc3)ccc21 [Example 20, 2-[5-(2-Amino-pyrimidin-5-yl)-1-tert-butyl-1H-benzoimidazol-2-yl]-N-pyridin-2-yl-benzamide]	5.57	8.66	
